Our source for the inhibition and IC50 values is patent US7125878B2, “Substituted pyrroline kinase inhibitors” (Janssen Pharmaceutica, priority 2002, dated 2006).

“And” between values parts separate entries of the source, which are not always exact repeats. Identical values can stand only once.

One assay addresses PKC-α (Homo sapiens, UniProt P17252). As to the kind of experiment: Protein Kinase C Histone-Based Assay, isozyme α. As to conditions: for inhibition at 1 µM / inhibition at 10 µM: read-out: PKC-α % inhibition.
The target in another assay is PKC-βII (Homo sapiens, UniProt P05771). As to the kind of experiment: Protein Kinase C Histone-Based Assay, isozyme β-II. The class given is biochemical.
Chain of PKC-βII (P05771 1-673 isoform P05771-2): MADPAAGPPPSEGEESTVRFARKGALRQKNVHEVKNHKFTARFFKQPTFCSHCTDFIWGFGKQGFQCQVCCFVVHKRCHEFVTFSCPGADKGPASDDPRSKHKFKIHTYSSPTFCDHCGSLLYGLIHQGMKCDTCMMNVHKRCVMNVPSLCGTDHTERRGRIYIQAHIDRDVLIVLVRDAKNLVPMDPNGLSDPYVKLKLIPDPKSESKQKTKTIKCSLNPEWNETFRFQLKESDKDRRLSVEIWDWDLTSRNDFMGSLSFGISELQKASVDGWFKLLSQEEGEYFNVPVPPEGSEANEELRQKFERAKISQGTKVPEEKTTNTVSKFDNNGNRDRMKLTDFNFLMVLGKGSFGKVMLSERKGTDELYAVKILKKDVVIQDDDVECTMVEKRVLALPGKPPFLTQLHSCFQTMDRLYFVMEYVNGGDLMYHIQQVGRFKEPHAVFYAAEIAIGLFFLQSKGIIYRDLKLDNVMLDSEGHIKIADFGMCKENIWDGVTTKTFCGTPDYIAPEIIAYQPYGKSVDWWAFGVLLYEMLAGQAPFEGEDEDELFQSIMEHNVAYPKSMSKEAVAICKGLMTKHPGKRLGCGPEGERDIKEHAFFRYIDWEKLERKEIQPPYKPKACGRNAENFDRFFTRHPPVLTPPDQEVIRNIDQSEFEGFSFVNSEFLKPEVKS
Another assay addresses PKC-γ (Homo sapiens, UniProt P05129). As to the kind of experiment: Protein Kinase C Histone-Based Assay, isozyme γ. The conditions noted are these: for inhibition at 1 µM / inhibition at 10 µM: read-out: PKC-γ % inhibition.
Assay [1] addresses T1, recombinant rabbit GSK-3β protein (Oryctolagus cuniculus, UniProt G1T8E2).
T1 construct: purchased New England Biolabs
As to the kind of experiment: Glycogen Synthase Kinase-3 Assay (33P phosphorylation of PPI-2). The class given is biochemical. The conditions noted are these: for IC50: two numbers = data obtained on different days; for inhibition at 1 µM: two numbers = different days. How it is done:
Glycogen Synthase Kinase-3 Assay
Compounds were tested for the ability to inhibit recombinant rabbit GSK-3β protein using the following protocol. The test compound was added to a reaction mixture containing Protein Phosphatase Inhibitor-2 (PPI-2) (Calbiochem) (45 ng), rabbit GSK-3β protein (New England Biolabs) (0.75 units) and ^33P-ATP (1 μCi) in 50 mM Tris-HCl (pH 8.0), 10 mM MgCl2, 0.1% BSA, 1 mM DTT and 100 μM Sodium Vanadate. The mixture was reacted for 90 minutes at 30° C. to allow phosphorylation of the PPI-2 protein and then the protein in the reaction was precipitated using 10% TCA. The precipitated protein was collected on filter plates (MultiScreen-DV/Millipore), which were subsequently washed. Finally, the radioactivity was quantified using a TopCount Scintillation Counter (Packard). […] Staurosporine or Valproate, known inhibitors of GSK-3β, were used as a positive control for screening.

For orientation: inhibition means the share of the control response that was lost under treatment. The IC50 is the concentration that gives 50% inhibition.

T1 sequence (G1T8E2 1-432): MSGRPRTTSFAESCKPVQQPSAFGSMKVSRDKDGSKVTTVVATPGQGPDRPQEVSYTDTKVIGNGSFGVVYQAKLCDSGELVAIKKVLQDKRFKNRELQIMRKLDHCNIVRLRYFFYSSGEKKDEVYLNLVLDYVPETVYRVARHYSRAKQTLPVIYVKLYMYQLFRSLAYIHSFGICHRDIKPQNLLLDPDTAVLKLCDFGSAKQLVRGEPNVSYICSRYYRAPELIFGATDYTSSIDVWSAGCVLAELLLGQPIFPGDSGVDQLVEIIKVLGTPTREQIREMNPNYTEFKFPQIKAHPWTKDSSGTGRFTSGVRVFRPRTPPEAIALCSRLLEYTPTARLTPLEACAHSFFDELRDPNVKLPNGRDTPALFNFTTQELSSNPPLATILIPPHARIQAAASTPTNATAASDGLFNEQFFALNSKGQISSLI
Method for PKC-α: (§1) Compounds were evaluated for PKC isozyme selectivity using histone III as the substrate. […] 100 μg/mL phosphatidylserine, 20 μg/mL diacylglycerol, 30 μM ATP, 1 μCi [^33P]ATP and 200 μg/mL histone III. The reaction was incubated for 10 min at 30° C. Reactions were terminated by TCA precipitation and spotting on Whatman P81 filters. Filters were washed in 75 mM phosphoric acid and the radioactivity quantified by liquid scintillation counting.
Method for PKC-βII: as §1
Method for PKC-γ: as §1

Consider `O=C1NC(=O)C(c2cn(CCCO)c3ncccc23)=C1c1ccccc1Cl` [Cpd 1, 3-(2-chlorophenyl)-4-[1-(3-hydroxypropyl)-1H-pyrrolo[2,3-b]pyridin-3-yl]-1H-pyrrole-2,5-dione], for which the values for the inhibition at 1 µM at PKC-α, against PKC-βII and at PKC-γ were 18%, 14% and 48%, respectively. For the same compound, the figures for the inhibition at 10 µM on PKC-α, on PKC-βII and at PKC-γ were 2%, 81% and 43%, respectively. Further, the concentration for half-maximal inhibition (IC50) in assay [1] was 9 nM and 10 nM.
In the case of `CN(C)CCCn1cc(C2=C(c3ccccc3Cl)C(=O)NC2=O)c2cccnc21` [Cpd 2, 3-(2-chlorophenyl)-4-[1-[3-(dimethylamino)propyl]-1H-pyrrolo[2,3-b]pyridin-3-yl]-1H-pyrrole-2,5-dione], the inhibition at 1 µM on PKC-α amounted to 0%; against PKC-βII it was 22%; at PKC-γ it was 46%. Further, the inhibition at 10 µM at PKC-α was determined as 1%; against PKC-βII it was 50%; at PKC-γ, 54%. Also, the IC50 in assay [1] amounted to 19 nM.
With `O=C1NC(=O)C(c2cn(CCCO)c3ncccc23)=C1c1cccc2ccccc12` [Cpd 3, 3-[1-(3-hydroxypropyl)-1H-pyrrolo[2,3-b]pyridin-3-yl]-4-(1-naphthalenyl)-1H-pyrrole-2,5-dione], the values for the inhibition at 1 µM at PKC-α, on PKC-βII and on PKC-γ were 0%, 30% and 20%, respectively. Besides, the inhibition at 10 µM at PKC-α was determined as 51%; on PKC-βII, 89%; at PKC-γ, 31%. Moreover, the IC50 in assay [1] was 30 nM and 31 nM.
Consider `CN(C)CCCn1cc(C2=C(c3cccc4ccccc34)C(=O)NC2=O)c2cccnc21` [Cpd 4, 3-[1-[3-(dimethylamino)propyl]-1H-pyrrolo[2,3-b]pyridin-3-yl]-4-(1-naphthalenyl)-1H-pyrrole-2,5-dione], for which the inhibition at 1 µM was 0% on PKC-α, 47% against PKC-βII and 48% on PKC-γ. Besides, the inhibition at 10 µM at PKC-α was determined as 34%; at PKC-βII, 84%; at PKC-γ, 59%. Besides, in assay [1] (@100 nM), the inhibition at 0.1 µM was determined as 51%.
As for `O=C1NC(=O)C(c2cn(CCCO)c3ncccc23)=C1c1csc2ccc(Cl)cc12` [Cpd 5, 3-(5-chlorobenzo[b]thien-3-yl)-4-[1-(3-hydroxypropyl)-1H-pyrrolo[2,3-b]pyridin-3-yl]-1H-pyrrole-2,5-dione], the inhibition at 1 µM is 0% at PKC-α, 21% against PKC-βII and 44% on PKC-γ. Also, the results for the inhibition at 10 µM on PKC-α, on PKC-βII and on PKC-γ were 34%, 81% and 57%, respectively. In assay [1] (@400 nM), the inhibition at 0.4 µM was determined as 56%.
For `CN(C)CCCn1nc(C2=C(c3cn(-c4ccc5ccccc5c4)c4ncccc34)C(=O)NC2=O)c2ccccc21` [Cpd 20, 3-[1-[3-(dimethylamino)propyl]-1H-indazol-3-yl]-4-[1-(2-naphthalenyl)-1H-pyrrolo[2,3-b]pyridin-3-yl]-1H-pyrrole-2,5-dione], the figures for the half-maximal inhibitory concentration (IC50) at PKC-α, against PKC-βII (histone III substrate) and at PKC-γ were 53 nM, 2 nM and 151 nM, respectively. In addition, the inhibition at 1 µM in assay [1] is 21%.
In the case of `O=C1NC(=O)C(c2cn(CCCc3ccccc3)c3ncccc23)=C1c1cc2n(n1)CCC2` [Cpd 59, 3-(5,6-Dihydro-4H-pyrrolo[1,2-b]pyrazol-2-yl)-4-[1-(3-phenyl-propyl)-1H-pyrrolo[2,3-b]pyridin-3-yl]-pyrrole-2,5-dione], the concentration for half-maximal inhibition (IC50) in assay [1] is 519 nM and 424 nM.
On the same count and under the same terms, with `O=C1NC(=O)C(c2cn(CCCc3ccccc3)c3ncccc23)=C1c1cnccn1` [Cpd 60, 3-[1-(3-Phenyl-propyl)-1H-pyrrolo[2,3-b]pyridin-3-yl]-4-pyrazin-2-yl-pyrrole-2,5-dione] the figure was 625 nM; with `O=C1NC(=O)C(c2cn(CCCc3ccccc3)c3ncccc23)=C1C1=CCCCO1` [Cpd 61, 3-(5,6-Dihydro-4H-pyran-2-yl)-4-[1-(3-phenyl-propyl)-1H-pyrrolo[2,3-b]pyridin-3-yl]-pyrrole-2,5-dione], 714 nM and 635 nM.
Still for that read-out and setting: the same measure for `COc1ncc(C2=C(c3cn(CCCC#N)c4ncccc34)C(=O)NC2=O)c(OC)n1` [Cpd 62, 4-{3-[4-(2,4-Dimethoxy-pyrimidin-5-yl)-2,5-dioxo-2,5-dihydro-1H-pyrrol-3-yl]-pyrrolo[2,3-b]pyridin-1-yl}-butyronitrile]: 36 nM and 35 nM; for `N#CCCCn1cc(C2=C(c3cnccn3)C(=O)NC2=O)c2cccnc21` [Cpd 63, 4-[3-(2,5-Dioxo-4-pyrazin-2-yl-2,5-dihydro-1H-pyrrol-3-yl)-pyrrolo[2,3-b]pyridin-1-yl]-butyronitrile]: 77 nM and 102 nM; for `Cn1ccc(C2=C(c3cn(CCCC#N)c4ncccc34)C(=O)NC2=O)n1` [Cpd 64, 4-{3-[4-(1-Methyl-1H-pyrazol-3-yl)-2,5-dioxo-2,5-dihydro-1H-pyrrol-3-yl]-pyrrolo[2,3-b]pyridin-1-yl}-butyronitrile]: 77 nM and 128 nM.
With `O=C1NC(=O)C(c2cn(CCCOc3ccccc3)c3ncccc23)=C1c1cc2n(n1)CCC2` [Cpd 65, 3-(5,6-Dihydro-4H-pyrrolo[1,2-b]pyrazol-2-yl)-4-[1-(3-phenoxy-propyl)-1H-pyrrolo[2,3-b]pyridin-3-yl]-pyrrole-2,5-dione], the IC50 in assay [1] was 188 nM and 244 nM.
Still for that read-out and setting: with `Cn1nccc1C1=C(c2cn(CCCO)c3ncccc23)C(=O)NC1=O` [Cpd 66, 3-[1-(3-Hydroxy-propyl)-1H-pyrrolo[2,3-b]pyridin-3-yl]-4-(2-methyl-2H-pyrazol-3-yl)-pyrrole-2,5-dione] the figure was 480 nM and 660 nM.
Still for that read-out and setting: the same measure for `O=C1NC(=O)C(c2cn(CCCO)c3ncccc23)=C1c1ccoc1` [Cpd 67, 3-Furan-3-yl-4-[1-(3-hydroxy-propyl)-1H-pyrrolo[2,3-b]pyridin-3-yl]-pyrrole-2,5-dione]: 140 nM and 59 nM.
As for `O=C1NC(=O)C(c2cn(CCCO)c3ncccc23)=C1c1c[nH]c(=O)[nH]c1=O` [Cpd 68, 5-{4-[1-(3-Hydroxy-propyl)-1H-pyrrolo[2,3-b]pyridin-3-yl]-2,5-dioxo-2,5-dihydro-1H-pyrrol-3-yl}-1H-pyrimidine-2,4-dione], the inhibition at 1 µM in assay [1] was 43%.
For `Cn1ccc(C2=C(c3cn(CCC#N)c4ncccc34)C(=O)NC2=O)n1` [Cpd 69, 3-{3-[4-(1-Methyl-1H-pyrazol-3-yl)-2,5-dioxo-2,5-dihydro-1H-pyrrol-3-yl]-pyrrolo[2,3-b]pyridin-1-yl}-propionitrile], in assay [1], the 50% inhibitory concentration (IC50) was determined as 100 nM.
In the case of `CCCCC1=C(c2cn(CCCO)c3ncccc23)C(=O)NC1=O` [Cpd 70, 3-Butyl-4-[1-(3-hydroxy-propyl)-1H-pyrrolo[2,3-b]pyridin-3-yl]-pyrrole-2,5-dione], the IC50 in assay [1] came to 380 nM.
For `COCCn1cc(C2=C(c3cnc(OC)nc3OC)C(=O)NC2=O)c2cccnc21` [Cpd 71, 3-(2,4-Dimethoxy-pyrimidin-5-yl)-4-[1-(2-methoxy-ethyl)-1H-pyrrolo[2,3-b]pyridin-3-yl]-pyrrole-2,5-dione], in assay [1], the IC50 is 360 nM.
Turning to `COc1ncc(C2=C(c3cn(Cc4ccccc4)c4ncccc34)C(=O)NC2=O)c(OC)n1` [Cpd 72, 3-(1-Benzyl-1H-pyrrolo[2,3-b]pyridin-3-yl)-4-(2,4-dimethoxy-pyrimidin-5-yl)-pyrrole-2,5-dione], in assay [1], the inhibition at 1 µM is 54%.
As for `COc1ncc(C2=C(c3cn(CCc4ccccc4)c4ncccc34)C(=O)NC2=O)c(OC)n1` [Cpd 73, 3-(2,4-Dimethoxy-pyrimidin-5-yl)-4-(1-phenethyl-1H-pyrrolo[2,3-b]pyridin-3-yl)-pyrrole-2,5-dione], the IC50 in assay [1] is 100 nM.
For the compound `COc1ncc(C2=C(c3cn(CCCc4cccs4)c4ncccc34)C(=O)NC2=O)c(OC)n1` [Cpd 74, 3-(2,4-Dimethoxy-pyrimidin-5-yl)-4-[1-(3-thiophen-2-yl-propyl)-1H-pyrrolo[2,3-b]pyridin-3-yl]-pyrrole-2,5-dione], in assay [1], the inhibition at 1 µM turned out to be 39%.
Turning to `COc1ncc(C2=C(c3cn(CCOc4ccc(F)cc4)c4ncccc34)C(=O)NC2=O)c(OC)n1` [Cpd 75, 3-(2,4-Dimethoxy-pyrimidin-5-yl)-4-{1-[2-(4-fluoro-phenoxy)-ethyl]-1H-pyrrolo[2,3-b]pyridin-3-yl}-pyrrole-2,5-dione], the IC50 in assay [1] was found to be 240 nM.
The same measure, in the same setting: with `COc1ncc(C2=C(c3cn(CCCOc4ccccc4)c4ncccc34)C(=O)NC2=O)c(OC)n1` [Cpd 76, 3-(2,4-Dimethoxy-pyrimidin-5-yl)-4-[1-(3-phenoxy-propyl)-1H-pyrrolo[2,3-b]pyridin-3-yl]-pyrrole-2,5-dione] the figure was 43 nM and 59 nM.
Turning to `COc1ccccc1C1=C(c2cn(CCCNC(C)=O)c3ncccc23)C(=O)NC1=O` [Cpd 77, N-[3-[3-[2,5-dihydro-4-(2-methoxyphenyl)-2,5-dioxo-1H-pyrrol-3-yl]-1H-pyrrolo[2,3-b]pyridin-1-yl]propyl]-acetamide], the inhibition at 10 µM on PKC-α came to 26%. This compound also registered an inhibition at 1 µM at PKC-βII of 49%. For the same compound, in assay [1], the IC50 is 2 nM and 3 nM.
